Data taken from patent publication US9220680B2, “Compositions and methods for localized drug delivery through mammary papillae” (South Dakota State University, priority 2012, dated 2015).

Key:
[1] = Biodistribution of 5FU in rats 6 hours after intraductal and intravenous injection (Experiment 23); type: in vivo, Sprague-Dawley rats; conditions: rat
Method: The hair on the skin of the rats was removed using a hair removing formulation. The treatment was given after 24 hours to make sure the skin is recovered if damaged or altered due to the hair removal treatment.
Next day, the rats were placed under controlled Isoflurane anesthesia. Now 500 μl of Blood samples were collected from each animal before beginning the experiment, by retro-orbital technique, as a control. For intraductal injection the mammary papilla to be treated was gently wiped with an alcoholic cotton swab to remove the keratin plug. Now 100 μl of 5FU solution in saline (10 mg/ml) was injected into the duct of the mammary papilla under a stereo-microscope. After this the animal was removed from anesthesia and placed into the cage. In case of intravenous injection, similar to intraductal, 100 μl of 5FU solution in saline (10 mg/ml) was injected into the tail vein and the animal was placed into the cage for 6 hours. At the end of 6 hours 500 μl of blood sample was collected. After this the rats were euthanized. Now for intraductal injection the treated area of the rat was cleaned with water. The rat was opened from the abdominal skin. Treated mammary papilla and mammary gland existing underneath the treated mammary papilla was excised and collected. Lateral mammary papilla and mammary gland was collected along with distant mammary papilla and mammary gland, as controls. Followed by this other organs including heart, brain, liver, spleen, kidneys and lungs were collected. In case of intravenous treatment, blood was collected and mammary tissues (mammary papilla, mammary gland and surrounding breast skin) was collected along with other organs including heart, brain, liver, spleen, kidneys and lungs. All the tissues were weighed and then mechanically homogenized to extract the drug. The homogenates were mixed with hydrogen peroxide solution (30% v/v) and then radioactivity into the samples was measured by liquid scintillation counting. Similarly blood samples were centrifuged and the supernatants were analyzed by scintillation counting. Results may be seen in FIG. 49, Table 28 and Table 29.

[2] = cited from earlier work
[3] = In vitro penetration and permeation via excised porcine mammary papilla, Franz diffusion cell (Example 1); type: in vitro ADME
Method: Drug penetration and permeation via mammary papillae was performed in a Franz diffusion cell using excised porcine mammary papilla. […] The transport studies were performed at time points for 6 and 48 hours.
In a separate study to evaluate the drug retention and disposition, the treatment was removed after 6 hours and the study was continued until the 48 hour mark. Samples were withdrawn from the receptor compartment at different time points. At the end of study, the mammary papilla was cut to 2 mm thick cylindrical sections from the top to the base of the tissue and was digested using a tissue solubilizer. The drug concentrations were determined by liquid scintillation counting.
Methods for the preparation of porcine mammary papilla. Freshly excised strips of porcine mammary papilla (6-7 months old animals) were washed with deionized water followed by removal of subcutaneous fatty tissue using a scalpel. Keeping the mammary papilla in the center, 3 cm×3 cm sized specimens of the tissue were excised, subcutaneous fat tissue was removed, and the tissue was frozen at −20° C. until used for the drug penetration and permeation studies.
Breast tissue was mounted between the two compartments of a vertical Franz diffusion cell (FDC) with breast tissue sandwiched between donor and receptor compartments. A mammary papilla was set in upright position inside the donor compartment of Franz diffusion cell. […] Samples were withdrawn from the receptor at different time points for 48 hours to determine drug concentration by radioactive count. At the end of 48 hours, tissue samples were taken for drug content determination. […]
In a second study, the mammary papillae in Franz diffusion cells were treated with the drugs for 48 hours and the permeation was followed through 48 hours. This analysis provided information regarding any saturation from drug treatment for extended periods of time. […]
Extraction of drugs from the mammary papilla. At the end of permeation study, the mammary papilla was removed from Franz diffusion cell and thoroughly washed with deionized water and blotted dried. Approximately 2 mm thick sections of the tissue were taken using a scalpel. These sections were homogenized, the drug was extracted, and the drug concentration was determined by radioactive counts.

[4] = excised porcine mammary papilla, saturated solution in ethanol:water (50:50), 48 h, mean ± SEM, n=3
[5] = porcine mammary papilla, end of 48 h, mean ± SEM, n=3

## O=c1[nH]cc(F)c(=O)[nH]1 [5FU, 5-fluorouracil]
[1]; intraductal and intravenous injection
  5FU in vital organs of the body: significant amount of 5FU in vital organs of the body including kidneys, liver and brain
[1]; intraductal injection
  Drug per gram tissue, mammary gland: 0 µmol/g
  Drug per gram tissue, surrounding skin: 0.23 µmol/g
[1]; intraductal injection 100 μl of 10 mg/ml 5FU in saline
  Drug per gram tissue of mammary papilla: 1.36 µmol/g
[1]; intravenous injection
  Drug per gram tissue, mammary gland: 0 µmol/g
  Drug per gram tissue, surrounding skin: 0 µmol/g
[1]; intravenous injection 100 μl of 10 mg/ml 5FU in saline
  Drug per gram tissue of mammary papilla: 0 µmol/g
[2]
  Log P: −0.89
[3]; excised porcine mammary papilla, Franz diffusion cell, saturated solution in ethanol:water (50:50), 48 h, mean ± SEM, n=3
  Lag time: 8.18 ± 0.79 h
[3]; [4]
  Cumulative % permeated: 5.71 ± 0.06%
  Flux × 10^3: 38.46 ± 2.38 μM · cm^2 · hr^−1
  Permeability coefficient × 10^3: 0.25 ± 0.015 cm^2 · hr^−1
  cumulative amount permeated: 4.38 ± 0.04 µM
[3]; [5]
  Cumulative % retained: 4.94 ± 0.74%
  Cumulative amount retained: 3.80 ± 0.56 µM
  Drug extraction from 2 mm thick mammary papilla sections, Section A (tip): 13.47 ± 1.35 µM/g
  Drug extraction from 2 mm thick mammary papilla sections, Section B: 11.78 ± 1.69 µM/g
  Drug extraction from 2 mm thick mammary papilla sections, Section C: 9.80 ± 1.44 µM/g
  Drug extraction from 2 mm thick mammary papilla sections, Section D (base): 5.84 ± 1.69 µM/g
[3]; porcine mammary papilla, treatment up to 48 hours
  Permeation across mammary papilla (in words): significant amount of 5FU passes through the mammary papilla
